In patent publication US20020055094A1 (priority 1996, published 2002):
Like-named read-outs stand apart in the source and are kept apart here.

Assays:
[1] = biological target: whole virus influenza neuraminidase, influenza B strain B/Vic/02/87 (Influenza B virus, UniProt P27907); format: biochemical; conditions: read-out: Binding Constants (M) / inhibition constants (IC50), B/Vic/02/87
[2] = test system: influenza A NWS/Tokyo (H1N2); format: binding
[3] = biological target: whole virus influenza neuraminidase, influenza A strain NWS/Tokyo (Influenza A virus, UniProt P06820); test: biochemical
Sequence of whole virus influenza neuraminidase, influenza A strain NWS/Tokyo (P06820 whole entry, looked up): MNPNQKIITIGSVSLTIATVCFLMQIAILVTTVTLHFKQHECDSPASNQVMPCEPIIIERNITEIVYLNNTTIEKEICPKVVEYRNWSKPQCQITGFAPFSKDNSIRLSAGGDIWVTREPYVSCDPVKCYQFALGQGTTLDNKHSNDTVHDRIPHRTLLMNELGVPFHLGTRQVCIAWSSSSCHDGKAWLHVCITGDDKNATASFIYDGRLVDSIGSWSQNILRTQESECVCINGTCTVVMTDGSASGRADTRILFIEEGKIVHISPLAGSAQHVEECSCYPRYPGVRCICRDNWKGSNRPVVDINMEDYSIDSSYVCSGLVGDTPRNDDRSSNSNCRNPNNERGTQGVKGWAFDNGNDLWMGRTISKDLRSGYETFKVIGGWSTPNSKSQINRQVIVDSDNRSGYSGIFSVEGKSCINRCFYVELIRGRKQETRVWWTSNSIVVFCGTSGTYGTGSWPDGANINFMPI

Sequence of whole virus influenza neuraminidase, influenza B strain B/Vic/02/87 (P27907 whole entry, looked up): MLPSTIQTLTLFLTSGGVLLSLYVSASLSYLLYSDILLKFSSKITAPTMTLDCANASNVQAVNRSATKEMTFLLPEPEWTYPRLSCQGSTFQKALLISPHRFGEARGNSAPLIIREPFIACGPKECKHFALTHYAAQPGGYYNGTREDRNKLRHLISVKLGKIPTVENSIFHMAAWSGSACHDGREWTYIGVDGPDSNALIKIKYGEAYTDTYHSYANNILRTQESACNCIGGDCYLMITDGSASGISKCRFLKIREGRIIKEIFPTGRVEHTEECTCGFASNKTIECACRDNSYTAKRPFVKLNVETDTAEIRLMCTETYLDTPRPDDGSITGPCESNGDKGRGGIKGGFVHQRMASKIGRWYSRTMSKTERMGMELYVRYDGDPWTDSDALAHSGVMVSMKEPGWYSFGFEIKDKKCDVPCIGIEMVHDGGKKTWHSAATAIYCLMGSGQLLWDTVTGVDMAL

Question: Which results are given for “5-acetamido-7-{6′-[6″-(6″′-biotinylaminocaproyl) -tri-amingcaroyl]-aminohexyl}-carbamoyloxy-4-guanidino -2,3,4,5-tetradeoxy-D-glycero-D-gaacto-non-2-enopyranosonic acid [Compound No. 26]”?
Answer: IC50 [1]: 4e-08 M; compound concentration giving the best results [2]: 0.1 µM; virus amount readily detected [2]: 2.5×10^5 pfu/well

Question: How did the IC50 [3] turn out when CC(=O)N[C@H]1[C@H]([C@H](OC(=O)NCCCCCCN)[C@H](O)CO)OC(C(=O)O)=C[C@@H]1NC(=N)N [compound 11, 5-acetamido-7-(6′-aminohexyl)-carbamoyloxy-4-guanidino-2,3,4,5-tetradeoxy-D-glycero-D-galacto-non-2-enopyranosonic acid] was run?
Answer: 2e-08 M

Question: Which IC50 [3] does the source give for CC(=O)N[C@H]1[C@H]([C@H](OC(=O)NCCCCCCNC(=O)CCCCCNC(=O)CCCCCNC(=O)CCCCCNC(=O)CCCCCN)[C@H](O)CO)OC(C(=O)O)=C[C@@H]1NC(=N)N [compound 25, 5-acetamido-7-(6′-(6″-(6″′-aminocaproyl) -triaminocaproyl) -aminohexyl) -carbamoyloxy-4-guanidino-2,3,4,5-tetradeoxy-D-glycero-D-galacto-non-2-enopyranosonic acid] here?
Answer: 5e-08 M

Question: For CC(=O)N[C@H]1[C@H]([C@H](OC(=O)NCCCCCCNC(=O)NCCCCCCNC(=O)OC(C)(C)C)[C@H](O)CO)OC(C(=O)O)=C[C@@H]1N [compound 20, 5-acetamido-4-amino-7-[6′-(6″-tert-butoxycarbonyl-aminohexylureido) -hexyl]-carbamoyloxy-2,3,4,5-tetradeoxy-D-glycero-D-galacto-non-2-enopyanosonic acid], which IC50 [3] is on record?
Answer: 1e-05 M

Question: With CC(=O)N[C@H]1[C@H]([C@H](OC(=O)NCCCCCCNC(=O)CCCCCCCCCCCNC(=O)CCCC[C@@H]2SC[C@@H]3NC(=O)N[C@@H]32)[C@H](O)CO)OC(C(=O)O)=C[C@@H]1NC(=N)N [compound 22, 5-Acetamido-7-(6′-biotinylamino-dodecanoyl-aminohexyl) -carbamoyl-4-guanidino-2,3,4,5-tetradeoxy-D-glycero-D-galacto-non-2-enopyranosonic acid] as the compound, how does the IC50 [3] read?
Answer: 3e-08 M

Question: With CC(=O)N[C@H]1[C@H]([C@H](OC(=O)NCCCCCCNC(=O)CNC(=O)CNC(=O)CNC(=O)CCCC[C@@H]2SC[C@@H]3NC(=O)N[C@@H]32)[C@H](O)CO)OC(C(=O)O)=C[C@@H]1NC(=N)N [Compound No. 21, 5-acetamido-7-(6′-biotinylamino-tricrlycinamido-hexy) -carbamoyloxy-4-guanidino-2,3,4,5-tetradeoxy-D-glycerQ-D-galacto-non-2-enopyranosonic acid] as the compound, how does the IC50 [3] read?
Answer: 4e-08 M

Question: With CC(=O)N[C@H]1[C@H]([C@H](OC(=O)NCCCCCCNC(=O)CCCCCNC(=O)CCCC[C@@H]2SC[C@@H]3NC(=O)N[C@@H]32)[C@H](O)CO)OC(C(=O)O)=C[C@@H]1NC(=N)N [compound 23, 5-Acetamido-7-(6′-biotinylamino-caproyl-aminohexyl) -carbamoyl-4-guanidino-2,3,4,5-tetradeoxy-D-glycero-D-galacto-non-enopyranosonic acid] as the compound, how does the IC50 [3] read?
Answer: 2e-08 M

Question: With CC(=O)N[C@H]1[C@H]([C@H](OC(=O)NCCCCCCNC(=O)OC(C)(C)C)[C@H](O)CO)OC(C(=O)O)=C[C@@H]1NC(=N)N [compound 13, 5-acetamido-7-(6′-tert-butoxycarbonylaminohexyl)-carbamoyloxy-4-guanidino-2,3,4,5-tetradeoxy-D-glycero-D-galacto-non-2-enopyranosonic acid] as the compound, how does the IC50 [3] read?
Answer: 2e-08 M

Question: How did the IC50 [3] turn out when CC(=O)N[C@H]1[C@H]([C@H](OC(=O)NCCOCCOCCN)[C@H](O)CO)OC(C(=O)O)=C[C@@H]1NC(=N)N [compound 17, 5-acetamido-7-{2-[2-(2-aminoethoxy)-ethoxy]-ethyl}-carbamoyloxy-4-guanidino-2,3,4,5-tetradeoxy-D-glycero-D-galacto-non-2-enopyranosonic acid] was run?
Answer: 2e-08 M

Question: CC(=O)N[C@H]1[C@H]([C@H](OC(=O)NCCCCCCNC(=O)NCCCCCCN)[C@H](O)CO)OC(C(=O)O)=C[C@@H]1NC(=N)N [Compound No. 8, 5-acetamido-7-[6′-(6″-aminohexylureido)-hexyl]-carbamoyloxy-4-guanidino-2,3,4,5-tetradeoxy-D-glycero-D-galacto-non-2-enopyranosonic acid] was tested. Which IC50 [3] did it give?
Answer: 4e-08 M

Question: For CC(=O)N[C@H]1[C@H]([C@H](OC(=O)NCCCCCCNC(=O)CCCC[C@@H]2SC[C@@H]3NC(=O)N[C@@H]32)[C@H](O)CO)OC(C(=O)O)=C[C@@H]1NC(=N)N [compound 19, 5-acetamindo-7-(6′-biotinylaminohexyl),carbamoyloxy-4-guanidino-2,3,4,5-tetradeoxy-D-crlvero-D-galacto-non-2-enopyranosonic acid], which IC50 [3] is on record?
Answer: 1e-08 M

Question: How did the IC50 ([3]; read-out: Binding Constants (M) / inhibition constants (IC50), NWS/Tokyo) turn out when DANA [reference compound] was run?
Answer: 4e-05 M
